Data taken from article PMC12653048 (2025).

Columns and labels:
[1] = tested on: s12_13_82 (DNA, aptamer) ATACCAGCTTATTCAATTCAGGGCGGTATGAGGCTCGATCAAGGTCGGAGCGAGAATTTTTTCGCGGAGTCGGCTGGATCAGATAGTAAGTGCAATCT; test: ITC; conditions: 50 mM Na+, 3 mM Mg2+; BB: 20 mM Tris-acetate, pH 7.4, 25 °C
[2] = tested on: s12_13_82m7 (DNA, aptamer) GCGCGATCAAGGTCGGAGCGTTTTCGCGGAGTCGGCTGGATCGCGC; test: ITC; conditions: 50 mM Na+, 3 mM Mg2+; BB: 20 mM Tris-acetate, pH 7.4, 25 °C
[3] = tested on: s11_Kana2 (DNA, aptamer) CACCTAATACGACTCACTATAGCGGATCCGAAGATGGGGGTTGAGGCTAAGCCGACCGTAAGTTGGGCCGTCTGGCTCGAACAAGCTTGC; test: ITC; conditions: 50 mM Na acetate, 5 mM K+, 5 mM Mg2+; SB1: 20 mM Tris-acetate, pH 8.0, 25 °C; 20.8 μM aptamer, 300 μM KANA in syringe; KD above 200 μM undetectable
[4] = tested on: s21_K16 (DNA, aptamer) CGCATACCAGCTTAGTTCAGAATTCATTGGAGCGTGGCGTGGATGCCCGATGAACCGCCCCAGGGTGCAGATAGTAAGTGCAATCTCGGC; test: ITC; conditions: 100 mM Na acetate, 2 mM Mg2+, 5 mM K+, 1 mM Ca2+; SB2: 20 mM Tris-acetate, pH 7.6, 25 °C; 30 μM aptamer, 350 μM KANA in syringe; KD above 300 μM undetectable
[5] = tested on: s25_Kana6-1 (DNA, aptamer) GACGACGAGGGCCTGAAACTTGCTGGAACGGTTAAAGTCGTC; test: ITC; conditions: 300 mM Na acetate, 10 mM Mg2+, 5 mM K+; SB3: 50 mM MES-NaOH, pH 7.0, 25 °C
[6] = tested on: s25_Kana6-5 (DNA, aptamer) GACGACGCAGTTGGCTTAGCGTAGGTAAAGGTCGATGTCGTC; test: ITC; conditions: 300 mM Na acetate, 10 mM Mg2+, 5 mM K+; SB3: 50 mM MES-NaOH, pH 7.0, 25 °C
[7] = tested on: s12_13_82m1 (DNA, aptamer) GATCAAGGTCGGAGCGAGAATTTTTTCGCGGAGTCGGCTGGATC; test: ITC; conditions: 50 mM Na+, 3 mM Mg2+; BB: 20 mM Tris-acetate, pH 7.4, 25 °C
[8] = tested on: s12_13_82m2 (DNA, aptamer) GCGATCAAGGTCGGAGCGAGAATTTTTTCGCGGAGTCGGCTGGATCGC; test: ITC; conditions: 50 mM Na+, 3 mM Mg2+; BB: 20 mM Tris-acetate, pH 7.4, 25 °C
[9] = tested on: s12_13_82m5 (DNA, aptamer) GCGATCAAGGTCGGAGCGAGTTCGCGGAGTCGGCTGGATCGC; test: ITC; conditions: 50 mM Na+, 3 mM Mg2+; BB: 20 mM Tris-acetate, pH 7.4, 25 °C
[10] = tested on: s12_13_82m6 (DNA, aptamer) GCGCGATCAAGGTCGGAGCGCAGTTGCGGAGTCGGCTGGATCGCGC; test: ITC; conditions: 50 mM Na+, 3 mM Mg2+; BB: 20 mM Tris-acetate, pH 7.4, 25 °C
[11] = tested on: s12_13_82m8 (DNA, aptamer) GCGATCAAGGTCGGAGCGTTTTCGCGAGTCGGCTGGATCGC; test: ITC; conditions: 50 mM Na+, 3 mM Mg2+; BB: 20 mM Tris-acetate, pH 7.4, 25 °C
[12] = tested on: s12_13_82 (DNA, aptamer) ATACCAGCTTATTCAATTCAGGGCGGTATGAGGCTCGATCAAGGTCGGAGCGAGAATTTTTTCGCGGAGTCGGCTGGATCAGATAGTAAGTGCAATCT; test: CD spectroscopy; conditions: 50 mM Na acetate, 3 mM Mg2+; BB: 20 mM Tris-acetate, pH 7.4, 25 °C; 2 μM aptamer, 20 μM KANA
[13] = tested on: s21_K16 (DNA, aptamer) CGCATACCAGCTTAGTTCAGAATTCATTGGAGCGTGGCGTGGATGCCCGATGAACCGCCCCAGGGTGCAGATAGTAAGTGCAATCTCGGC; test: CD spectroscopy; conditions: 100 mM Na acetate, 2 mM Mg2+, 5 mM K+, 1 mM Ca2+; SB2: 20 mM Tris-acetate, pH 7.6, 25 °C; 2 μM aptamer, 20 μM KANA
[14] = tested on: s25_Kana6-1 (DNA, aptamer) GACGACGAGGGCCTGAAACTTGCTGGAACGGTTAAAGTCGTC; test: CD spectroscopy; conditions: 300 mM Na acetate, 10 mM Mg2+, 5 mM K+; SB3: 50 mM MES-NaOH, pH 7.0, 25 °C; 2 μM aptamer, 20 μM KANA
[15] = tested on: s25_Kana6-5 (DNA, aptamer) GACGACGCAGTTGGCTTAGCGTAGGTAAAGGTCGATGTCGTC; test: CD spectroscopy; conditions: 300 mM Na acetate, 10 mM Mg2+, 5 mM K+; SB3: 50 mM MES-NaOH, pH 7.0, 25 °C; 2 μM aptamer, 20 μM KANA

SMILES	binding [1]	binding [2]	binding [3]	KD [1] [mM]	binding [4]	KD [5] [nM]	KD [6] [nM]	KD [7] [nM]	KD [8] [mM]	KD [9] [mM]	KD [10] [mM]	KD [2] [mM]	KD [11] [mM]	binding [12]	binding [13]	binding [14]	binding [15]
CN[C@@H]1[C@H](O[C@H]2[C@H](O[C@H]3[C@H](O)[C@@H](O)[C@H](N=C(N)N)[C@@H](O)[C@@H]3N=C(N)N)O[C@@H](C)[C@]2(O)C=O)O[C@@H](CO)[C@H](O)[C@H]1O	no	no	–	–	–	–	–	–	–	–	–	–	–	–	–	–	–
NC[C@@H]1O[C@H](O[C@H]2[C@@H](O)[C@H](O[C@@H]3[C@@H](O)[C@H](N)C[C@H](N)[C@H]3O[C@H]3O[C@H](CN)[C@@H](O)[C@H](O)[C@H]3N)O[C@@H]2CO)[C@H](N)[C@@H](O)[C@@H]1O	no	no	–	–	–	–	–	–	–	–	–	–	–	–	–	–	–
NC[C@H]1O[C@H](O[C@H]2[C@H](O)[C@@H](O[C@H]3O[C@H](CO)[C@@H](O)[C@H](N)[C@H]3O)[C@H](N)C[C@@H]2N)[C@H](O)[C@@H](O)[C@@H]1O	–	–	no	0.00047 ± 4e-05	no	2230 ± 240	870 ± 40	96 ± 8.7	0.000101 ± 8e-06	0.000106 ± 8.7e-06	0.000519 ± 4.84e-05	0.000109 ± 1.49e-05	0.0022 ± 0.000352	yes	no	yes	yes
